The text below walks through data of paper PMC12320299 (Chemical Science, 2025).

Usually IC50 stands for the concentration that inhibits the measured activity by half.

Molecules are shown by their SMILES.

The subject of assay [1] is HCT116 TP53-knockout (TP53KO) cell line. Kind of assay: MTT viability assay, HCT116 TP53-knockout, 96 h. It counts as cell-based, human. How it is done: (§1) removed and 100 µL DMSO was added to dissolve the formazan crystals. Photometric quantification was performed at 570 nm with a Multiskan Go 1510 photometer (Thermo Fisher […]
(§2) The absorbances were blank corrected and converted to relative proliferation. The IC50 values (concentration of 50% growth inhibition) were obtained using a sigmoidal fit of the experimental data and calculated as the mean ± standard deviation of at least three independent experiments, each in at least triplicates.
(§3) HCT116, HCT116 p53KO (each 2.000 cells/well) and CT-26 cells (500 cells/well) were seeded in 100 µL/well into flat-bottom 96-well plates (Starlab) and incubated at 37 °C for 96 h in a humidified incubator (Binder CB210) at 5% CO2. The test compound was dissolved in DMSO, serially diluted in the appropriate cell culture medium (see section above) to final DMSO concentrations of ≤0.5% v/v and 100 µL aliquots added to wells in triplicates. […] Optical densities were measured with a microplate reader (ELx808, Biotek) at a wavelength of 550 nm (and a reference wavelength of 690 nm) and blank corrected. […]
(§4) (each 3.000 cells/well) were seeded in 100 µL/well into flat-bottom 96-well plates (Starlab) and incubated at 37 °C for 24 h in a humidified incubator (Binder CB210) at 5% CO2. […] After 24 h of treatment, plates were measured by MTT assay as described above. […]
(Tetrazolium assays rely on reduction of a dye to a coloured formazan, in cell work by metabolically active cells.)

Assay [2] deals with SW480 cancer cells. As to the kind of experiment: Cell cycle analysis by flow cytometry (propidium iodide). It counts as cell-based, human. Particulars: 24 h; 1a 12.5 to 50 nM; gemcitabine 10 nM. On the technique in general: In flow cytometry, cells or beads pass a laser one at a time.
The subject of assay [3] is p21. Kind of assay: p21 expression, immunofluorescence, CT26. Particulars: 24 h, 1 μM. It counts as cell-based, murine. As to the method: Cell Signaling Technology (Danvers, MA, USA), respectively. Horseradish-peroxidase-linked secondary antibodies, anti-mouse IgG (Fc specific) antibody (#7076S) and anti-rabbit IgG antibody (#7074S) were purchased from Cell Signaling Technology (Danvers, MA, USA). Anti-ß-actin (AC-15) (A5441, 1:2000) was obtained from Sigma-Aldrich (St. Louis, MO, USA).
SW480 and CT26 cells were grown at a density of 6.7x10^4 cells/mL on 8-well glass coverslips (80841, ibidi GmbH, Gräfelfing, Germany) in 300 µL complete media. The next day, cells were treated with respective compounds for 24 h. Cells were fixed with 4%(v/v) paraformaldehyde for 15 min at RT, followed by washing, blocking and permeabilization with 5%(w/v) BSA and […]
(1 : 500) were diluted in 1% BSA-0.3% Triton-X-100 in PBS and incubated overnight at 4 °C.
One well was incubated without primary antibody as background control. Cells were washed and stained with secondary goat anti-mouse AlexaFlour-488 (1 : 500 dilution, A-11029, Thermo Fisher Scientific) or goat anti-rabbit AlexaFlour-488 (1 : 500 dilution, A-11034, Thermo Fisher Scientific) antibodies for 1 h at RT. Following, cells were stained with 0.2% Wheat Germ Agglutinin (WGA)-Rhodamine (RL-1022, Vector Laboratories, Inc.) and 0.1% DAPI (62248, Thermo Fisher Scientific) for staining of plasma membrane and nuclei, respectively, according to manufacturer’s recommendations. […]

Assay [4] deals with HCT116 TP53 wild-type (TP53WT). As to the kind of experiment: MTT viability assay, HCT116 TP53 wild-type, 96 h. The format is cell-based, human. As to the method: as §1, §2, §3, §4
The subject of assay [5] is p21. As to the kind of experiment: p21 expression, western blotting and immunofluorescence, SW480. It counts as cell-based, human. Particulars: 24 h, 1 μM. As to the method:
overnight at –20 °C. The pellet containing the nuclei was incubated with a hypertonic solution (10 mM Tris-HCl, 1 mM EDTA and 0.5 M NaCl) and subsequently diluted 1:10 with NP-40 buffer (10 mm Tris-HCl, 1 mm EDTA and 0.5% Triton X-100) containing protease inhibitors (1% PMSF, Sigma, and 1% protease and phosphatase inhibitor cocktail, Roche). After centrifugation (960 g, 5 min), the soluble nuclear (NE) proteins were also transferred into new tubes containing ice-cold ethanol (1 : 5, HPLC grade) and precipitated overnight at –20 °C.
The precipitated proteins were finally pelleted by centrifugation (5000 g, 30 min, 4 °C), the solution was decanted and the pellet dried under vacuum.
Samples were then dissolved in lysis buffer (8 M urea, 20% SDS, 1 M TEAB at pH 7.55) and denatured at 95 °C for 5 min. The protein amount was then quantified using a BCA assay. A total of 20 µg protein per sample was used for processing. Proteins were reduced with 50 µL of DTT (64 mM) and carbamidomethylated with 50 µL of iodoacetamide (486 mM). […]
and allowed to adhere overnight. […] For whole cell lysates, samples were collected, proteins isolated, and Western blotting performed as described in detail previously.5 In brief, protein concentration was determined using the Micro BCA™ Protein Assay Kit (Thermo Fisher Scientific, Waltham, MA, USA). […]
Background: In western blotting, separated proteins are transferred to a membrane and probed.

`CCC1=C2[O][Ru][O]C2(n2cccn2)c2ccccc2C1=O.Cc1ccc(C(C)C)cc1` (centres unmarked) [Compound 1a, [(3-ethyl-4-oxo-(pyrazolyl)-dihydronaphthalene)(cymene)ruthenium(II)]]: the IC50 came to 260 ± 10 nM in assay [1] and 130 ± 20 nM in assay [4]. Further, the cell cycle distribution result in assay [2] is “dose-dependent increase in the S and G2/M phases”. Besides, in assay [3], the “p21 expression, CT26” value was “significantly reduced p21 expression”. Also, in assay [5], the “p21 expression, SW480” value is listed as “significantly reduced p21 expression”.
